Data published in PubChem BioAssay (NCI).
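How tested: cells in 96-well plates exposed to compound for 48 hours at five concentrations. TGI: concentration producing complete growth inhibition.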

Assays:
Experiment in all cases: NCI tumour cell line growth inhibition, 48 h
[1] = system: A498 renal
[2] = system: UACC-62 melanoma
[3] = system: HOP-92 NSCLC
[4] = system: K-562 leukemia
[5] = system: NCI-H522 lung
[6] = system: RXF-631 renal
[7] = system: SK-MEL-5 melanoma
[8] = system: SNB-19 CNS
[9] = system: DMS 114 small cell lung
[10] = system: XF 498 CNS
[11] = system: CCRF-CEM leukemia
[12] = system: SW-620 colon
[13] = system: OVCAR-3 ovarian
[14] = system: SNB-75 CNS
[15] = system: SK-OV-3 ovarian
[16] = system: HCT-15 colon
[17] = system: MOLT-4 leukemia
[18] = system: OVCAR-5 ovarian
[19] = system: UO-31 renal
[20] = system: SNB-78 CNS
[21] = system: OVCAR-4 ovarian
[22] = system: KM20L2 colon
[23] = system: HOP-62 NSCLC
[24] = system: DLD-1 colon
[25] = system: MALME-3M melanoma
[26] = system: ACHN renal
[27] = system: KM12 colon
[28] = system: DMS 273 small cell lung
[29] = system: EKVX NSCLC
[30] = system: SF-268 CNS
[31] = system: HL-60(TB) leukemia
[32] = system: NCI-H226 lung
[33] = system: HT29 colon
[34] = system: M14 melanoma
[35] = system: A549 NSCLC
[36] = system: IGROV1 ovarian
[37] = system: NCI-H460 lung
[38] = system: U251 CNS
[39] = system: HCT-116 colon
[40] = system: SN12C renal
[41] = system: HOP-18 NSCLC
[42] = system: HCC-2998 colon
[43] = system: LOX IMVI melanoma
[44] = system: UACC-257 melanoma
[45] = system: 786-0 renal
[46] = system: SK-MEL-28 melanoma
[47] = system: RPMI-8226 leukemia
[48] = system: OVCAR-8 ovarian
[49] = system: COLO 205 colon
[50] = system: SK-MEL-2 melanoma
[51] = system: CAKI-1 renal
[52] = system: SF-295 CNS
[53] = system: LXFL 529 NSCLC
[54] = system: NCI-H23 lung

Measured: TGI

COC(=O)[C@]12CC=C3O[C@@H]4OC5(CCCCC5)O[C@@H]4C3[C@@H]1C(=O)CCC2=O (some centres undefined)
> 100 µM: [1] | [2] | [3] | [4] | [5] | [6] | [7] | [8] | [9] | [10] | [11] | [12] | [13] | [14] | [15] | [16] | [17] | [18] | [19] | [20] | [21] | [22] | [23] | [24] | [25] | [26] | [27] | [28] | [29] | [30] | [31] | [32] | [33] | [34] | [35] | [36] | [37] | [38] | [39] | [40] | [41] | [42] | [43] | [44] | [45] | [46] | [47] | [48] | [49] | [50] | [51] | [52] | [53] | [54]
